Assay results taken from US4176185A, “Spiro-quinolylhydantoins” (Pfizer Inc., priority 1979, dated 1979).

What was measured:
[1] = tested on: aldose reductase; assay: inhibition of aldose reductase enzyme activity; assay type: biochemical; details: partially purified aldose reductase from calf lens
From the text: (§1) The activity of the compounds of the present invention as agents for the control of chronic diabetic complications may be determined by a number of standard biological or pharmacological tests. Suitable tests include (1) measuring their ability to inhibit the enzyme activity of isolated aldose reductase; (2) measuring their ability to reduce or inhibit sorbitol accumulation in the sciatic nerve of acutely streptozotocinized (i.e. diabetic) rats; (3) measuring their ability to reverse already-elevated sorbitol levels in the sciatic nerve and lens of chronic streptozotocin-induced diabetic rats; (4) measuring their ability to prevent or inhibit galactitol formation in the lens of acutely galactosemic rats; and (5) measuring their ability to delay cataract formation and reduce the severity of lens opacities in chronic galactosemic rats.
The compounds of Examples 3 and 6 were tested for their ability to reduce or inhibit aldose reductase enzyme activity, following the procedure described in U.S. Pat. No. 3,821,383 and based on the procedure of Hayman et. al., Journal of Biological Chemistry, 240, 877 (1965). The substrate employed was partially purified aldose reductase enzyme obtained from calf lens. The results obtained with each compound at a concentration of 10^-4 M are expressed as percent inhibition of enzyme activity.

[2] = tested on: sorbitol accumulation in the sciatic nerve; assay: inhibition of sorbitol accumulation in the sciatic nerve of streptozotocinized (diabetic) rats; assay type: in vivo, rat; details: measured 27 h after induction of diabetes, vs untreated
From the text: as §1
The compounds of Examples 3 and 6 were tested for their ability to reduce or inhibit sorbitol accumulation in the sciatic nerve of streptozotocinized (i.e. diabetic) rats by the procedure essentially described in U.S. Pat. No. 3,821,383. In the present study, the amount of sorbitol accumulation in the sciatic nerves was measured 27 hours after induction of diabetes. The compounds were administered orally at the dose levels indicated at 4, 8 and 24 hours following the administration of streptozotocin. […]

% Inhibition at 10^-4 M (aldose reductase enzyme activity) [1]	SMILES	% Inhibition (sorbitol accumulation in sciatic nerve) ([2]; 10 mg/kg oral at 4, 8 and 24 h after streptozotocin)	% Inhibition (sorbitol accumulation in sciatic nerve) ([2]; 1.5 mg/kg oral at 4, 8 and 24 h after streptozotocin)
94%	O=C1NC(=O)C2(CCOc3c2ccc2ncccc32)N1 (stereo not shown) [Example 6]	92%	
75%	O=C1NC(=O)C2(CCOc3c2ccc2cccnc32)N1 (stereo not shown) [Example 3]		27%
